The values that follow come from US20240410898A1, “METHOD FOR DETECTING PROTEIN HAVING CHANGES IN ENERGY STATE, OR AFFINITY OF LIGAND TO PROTEIN” (DALIAN INSTITUTE OF CHEMICAL PHYSICS, CHINESE ACADEMY OF …, priority 2022, published 2024).

The assay relates to proteins containing the SH2 domain. Kind of assay: pulldown experiment with Biotin-pYEEI, BT474 cell lysate. Conditions: 100 μM Biotin-pYEEI. In kind it is binding. As for the experimental part: The pulldown experiment was conducted as follows: The cell lysate is from BT474 cells, and the cell lysis was performed as described in Example 1. […] Two additional 100 μL samples were treated with Biotin-pSEEI at a final concentration of 100 μM and Biotin-YEEI at a final concentration of 100 μM, respectively, serving as control groups. This process was repeated three times, and the samples were incubated with ligands at room temperature for 30 minutes. After incubation, 200 μL of avidin beads (Thermo, USA) were added to each group and incubated overnight at 4° C. Subsequently, the beads were washed four times with a washing buffer (1% phosphatase inhibitor, and 0.5% NP40 in PBS), followed by four washes with a cell lysis buffer (1% phosphatase inhibitor in PBS solution). The proteins were eluted by adding 100 μL of HEPES buffer (pH 8.2) containing 8M guanidine hydrochloride, and the elution step was repeated twice. The eluted proteins were alkylated by adding 10 mM TCEP and 40 mM CAA, followed by heating at 95° C. for 5 minutes. The eluted protein solution was transferred to an ultrafiltration unit and centrifuged at 14,000 g for 30 minutes to remove the buffer. The ultrafiltration membrane was washed twice with 200 μL of a 10 mM ammonium bicarbonate (NH4HCO3) buffer. […]

Consider “Phosphorylated tyrosine-glutamate-glutamate-isoleucine [pYEEI]”, for which the “SH2 domain proteins determined as pYEEI-binding proteins in pulldown” value is “none of the proteins containing the SH2 domain was determined as pYEEI-binding proteins”.
